In ChEMBL document CHEMBL1201862, “PubChem BioAssay data set” (2004):
Active and inactive are the calls of the source.

Legend:
[1] = target: T1, High affinity choline transporter 1 (Homo sapiens, UniProt Q9GZV3); assay: CHT inhibitors, dose response, cell-based, 5-point CRC, membrane potential dye (AID 504840); assay type: functional
T1 sequence (Q9GZV3 whole entry): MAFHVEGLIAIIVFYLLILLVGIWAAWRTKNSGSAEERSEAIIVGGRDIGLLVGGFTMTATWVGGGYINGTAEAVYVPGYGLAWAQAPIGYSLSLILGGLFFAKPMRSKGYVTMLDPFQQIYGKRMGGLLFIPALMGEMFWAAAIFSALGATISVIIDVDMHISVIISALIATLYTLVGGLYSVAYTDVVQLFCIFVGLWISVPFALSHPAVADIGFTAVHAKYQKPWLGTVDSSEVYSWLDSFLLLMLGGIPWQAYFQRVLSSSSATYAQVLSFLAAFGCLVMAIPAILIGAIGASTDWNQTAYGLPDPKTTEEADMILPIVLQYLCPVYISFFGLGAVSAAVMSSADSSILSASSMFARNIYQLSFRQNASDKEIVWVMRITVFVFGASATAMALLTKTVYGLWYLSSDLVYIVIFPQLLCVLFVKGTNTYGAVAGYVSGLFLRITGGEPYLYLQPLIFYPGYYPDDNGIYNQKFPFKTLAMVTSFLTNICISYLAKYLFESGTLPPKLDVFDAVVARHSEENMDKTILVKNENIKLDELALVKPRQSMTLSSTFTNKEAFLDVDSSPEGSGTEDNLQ

[2] = target: Ephrin type-A receptor 4 (Mus musculus, UniProt Q03137); assay: inhibitors of EphA4 binding to KYL peptide, primary screen, biochemical, colorimetric, mouse EphA4 (AID 689); assay type: functional
Chain of Ephrin type-A receptor 4 (Q03137 whole entry): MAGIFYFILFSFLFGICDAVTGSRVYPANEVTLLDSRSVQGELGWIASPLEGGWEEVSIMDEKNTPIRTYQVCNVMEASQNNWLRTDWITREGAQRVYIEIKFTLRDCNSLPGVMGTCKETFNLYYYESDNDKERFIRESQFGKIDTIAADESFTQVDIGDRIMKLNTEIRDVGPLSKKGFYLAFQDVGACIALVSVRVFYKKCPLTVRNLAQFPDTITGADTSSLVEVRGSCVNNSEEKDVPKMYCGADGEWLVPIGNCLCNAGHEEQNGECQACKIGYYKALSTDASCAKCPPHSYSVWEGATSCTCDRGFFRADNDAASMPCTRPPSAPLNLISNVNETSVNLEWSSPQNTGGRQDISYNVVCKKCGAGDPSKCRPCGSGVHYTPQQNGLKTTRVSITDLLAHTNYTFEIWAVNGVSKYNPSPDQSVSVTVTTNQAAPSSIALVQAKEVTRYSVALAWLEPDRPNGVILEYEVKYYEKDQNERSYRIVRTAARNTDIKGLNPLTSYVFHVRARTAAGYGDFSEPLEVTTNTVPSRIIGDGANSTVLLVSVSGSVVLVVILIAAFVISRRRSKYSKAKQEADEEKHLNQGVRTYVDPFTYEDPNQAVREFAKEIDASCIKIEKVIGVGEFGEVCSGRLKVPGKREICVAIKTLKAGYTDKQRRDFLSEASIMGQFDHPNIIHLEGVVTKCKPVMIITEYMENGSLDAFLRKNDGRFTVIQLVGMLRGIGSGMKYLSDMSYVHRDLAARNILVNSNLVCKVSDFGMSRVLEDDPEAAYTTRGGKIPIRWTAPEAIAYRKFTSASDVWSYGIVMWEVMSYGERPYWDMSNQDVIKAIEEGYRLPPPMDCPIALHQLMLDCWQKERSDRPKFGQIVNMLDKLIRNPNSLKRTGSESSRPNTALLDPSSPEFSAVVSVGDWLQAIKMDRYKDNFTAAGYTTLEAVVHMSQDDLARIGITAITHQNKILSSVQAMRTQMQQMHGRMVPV

[3] = test system: Vero; assay: cells; assay type: functional, cell-based; settings: Chlorocebus sabaeus
[4] = test system: Vero; assay: host cell cytotoxicity of antiviral hits, dose response, cytotoxicity control for West Nile virus antiviral project, secondary assay (AID 1650); assay type: functional; settings: Chlorocebus sabaeus
[5] = cells
[6] = HEp-2 cell cytotoxicity, dose response, cytotoxicity control for RSV inhibitor project, HTS (AID 2410); assay type: functional; settings: human respiratory syncytial virus
[7] = test system: Vero; assay: West Nile virus antiviral activity, cell-based, CPE readout (AID 1621); assay type: functional; settings: Chlorocebus sabaeus
[8] = Luminescent dose response cell-based high throughput screening assay for inhibitors of the Janus kinase 2 mutant JAK2V617F. [Related pubchem assays: 1446 (Primary screen.), 1521 (Confirmation assay.), 1486 (Counter screen.)]; assay type: functional
[9] = target: DNA repair and recombination protein RAD54-like (Homo sapiens, UniProt Q92698); assay: inhibitors of human RAD54 branch migration, confirmation, biochemical, fluorescence, cherry-picked samples, dose series (AID 651657); assay type: functional
Chain of DNA repair and recombination protein RAD54-like (Q92698 whole entry): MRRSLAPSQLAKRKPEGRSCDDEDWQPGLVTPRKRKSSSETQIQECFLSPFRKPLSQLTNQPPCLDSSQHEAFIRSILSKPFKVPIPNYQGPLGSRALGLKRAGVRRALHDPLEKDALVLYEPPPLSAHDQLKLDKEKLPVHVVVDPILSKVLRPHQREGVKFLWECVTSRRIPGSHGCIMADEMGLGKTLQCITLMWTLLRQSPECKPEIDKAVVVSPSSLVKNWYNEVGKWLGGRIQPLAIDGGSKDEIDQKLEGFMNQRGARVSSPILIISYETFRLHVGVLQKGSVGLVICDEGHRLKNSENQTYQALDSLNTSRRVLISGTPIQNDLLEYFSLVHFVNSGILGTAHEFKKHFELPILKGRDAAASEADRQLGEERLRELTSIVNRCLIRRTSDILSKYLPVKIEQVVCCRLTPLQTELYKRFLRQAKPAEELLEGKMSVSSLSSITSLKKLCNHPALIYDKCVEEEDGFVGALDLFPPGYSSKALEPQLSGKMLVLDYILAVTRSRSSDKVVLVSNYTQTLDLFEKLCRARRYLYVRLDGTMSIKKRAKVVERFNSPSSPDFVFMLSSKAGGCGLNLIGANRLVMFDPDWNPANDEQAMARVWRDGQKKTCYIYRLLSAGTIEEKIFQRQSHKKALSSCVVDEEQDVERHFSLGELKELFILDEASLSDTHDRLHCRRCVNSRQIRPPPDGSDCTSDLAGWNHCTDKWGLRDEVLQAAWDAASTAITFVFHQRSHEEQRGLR

[10] = inhibitors of intracellular T. cruzi replication, confirmation, NIH3T3 host cells, beta-gal luminescence (AID 2044); assay type: functional, cell-based;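 also: intracellular parasites grown in NIH/3T3 mouse fibroblasts as host cells; luminescent beta-galactosidase reporter signal from transgenic T. cruzi replicating inside host cells; inhibitors lower the luminescence signal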
[11] = cytotoxicity toward NIH3T3 fibroblasts, dose response, counter-screen, cell-based, ATP luminescence, mouse fibroblasts (AID 2010); assay type: functional;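 also: cells exposed to compound for about 90 hours before reading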
[12] = Luminescence Cell-Based Dose Retest to Confirm Inhibitors of Cancer Stem Cells. [Related pubchem assays (depositor defined):AID2717, AID2721]; assay type: functional; settings: Homo sapiens
[13] = target: T2, Replicative DNA helicase DnaB (Mycobacterium tuberculosis, UniProt P9WMR3); assay: DnaB intein splicing inhibitors, dose response, biochemical, cell-free fluorescence (AID 449749); assay type: functional
T2 sequence (P9WMR3 whole entry): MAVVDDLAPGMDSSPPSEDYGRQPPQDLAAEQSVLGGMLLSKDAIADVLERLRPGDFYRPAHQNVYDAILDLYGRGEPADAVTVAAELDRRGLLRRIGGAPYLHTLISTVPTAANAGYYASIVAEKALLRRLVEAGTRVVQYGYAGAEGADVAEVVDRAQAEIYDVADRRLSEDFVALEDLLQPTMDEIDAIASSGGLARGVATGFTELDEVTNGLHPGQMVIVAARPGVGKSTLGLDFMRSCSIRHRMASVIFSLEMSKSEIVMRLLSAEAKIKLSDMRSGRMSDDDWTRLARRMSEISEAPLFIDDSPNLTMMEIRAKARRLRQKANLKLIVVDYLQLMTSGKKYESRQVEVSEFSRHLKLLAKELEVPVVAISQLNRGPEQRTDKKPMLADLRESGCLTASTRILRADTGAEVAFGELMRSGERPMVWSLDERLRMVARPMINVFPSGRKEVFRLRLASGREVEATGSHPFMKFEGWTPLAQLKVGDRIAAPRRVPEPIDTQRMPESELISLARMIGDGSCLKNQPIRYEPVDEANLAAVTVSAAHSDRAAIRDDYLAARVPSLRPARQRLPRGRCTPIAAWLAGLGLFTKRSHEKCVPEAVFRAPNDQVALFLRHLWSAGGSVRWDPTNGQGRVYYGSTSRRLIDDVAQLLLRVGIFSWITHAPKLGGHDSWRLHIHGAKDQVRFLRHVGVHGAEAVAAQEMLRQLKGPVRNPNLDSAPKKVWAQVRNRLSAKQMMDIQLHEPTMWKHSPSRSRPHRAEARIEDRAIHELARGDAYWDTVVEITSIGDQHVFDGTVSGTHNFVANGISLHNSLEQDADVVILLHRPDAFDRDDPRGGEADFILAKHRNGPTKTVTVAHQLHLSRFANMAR

[14] = target: T3, Protein RecA (Mycobacterium tuberculosis, UniProt P9WHJ3); assay: Fluorescence Cell-Free Homogeneous Dose Retest to Identify Inhibitors of RecA-Intein Splicing Activity. [Related pubchem assays (depositor defined):AID2097, AID2223, AID489010, AID492950]; assay type: functional
T3 sequence (P9WHJ3 whole entry): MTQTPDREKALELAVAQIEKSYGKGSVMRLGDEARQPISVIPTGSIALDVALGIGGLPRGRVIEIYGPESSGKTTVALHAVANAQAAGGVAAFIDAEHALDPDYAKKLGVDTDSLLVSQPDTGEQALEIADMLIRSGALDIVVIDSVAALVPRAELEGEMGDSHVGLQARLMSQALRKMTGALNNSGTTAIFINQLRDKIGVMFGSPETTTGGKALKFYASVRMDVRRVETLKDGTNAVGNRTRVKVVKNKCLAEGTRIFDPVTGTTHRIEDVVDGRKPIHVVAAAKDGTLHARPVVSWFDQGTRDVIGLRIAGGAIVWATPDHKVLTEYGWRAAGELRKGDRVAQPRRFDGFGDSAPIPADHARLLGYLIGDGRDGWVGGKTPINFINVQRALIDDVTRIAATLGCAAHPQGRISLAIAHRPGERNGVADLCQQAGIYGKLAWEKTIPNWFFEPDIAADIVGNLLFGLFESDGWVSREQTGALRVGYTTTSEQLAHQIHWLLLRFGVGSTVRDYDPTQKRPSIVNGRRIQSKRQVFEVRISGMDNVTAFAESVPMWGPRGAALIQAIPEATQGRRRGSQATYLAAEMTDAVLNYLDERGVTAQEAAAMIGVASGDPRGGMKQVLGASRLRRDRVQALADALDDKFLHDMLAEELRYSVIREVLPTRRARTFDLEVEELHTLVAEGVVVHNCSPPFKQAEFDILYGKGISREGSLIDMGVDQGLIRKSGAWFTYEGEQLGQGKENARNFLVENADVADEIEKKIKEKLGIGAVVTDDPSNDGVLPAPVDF

[15] = target: T4, Mannose-6-phosphate isomerase (Homo sapiens, UniProt P34949); assay: human PMI inhibitors, high substrate, primary screen, biochemical, fluorescence intensity, high mannose 6-phosphate (AID 1220)
T4 sequence (P34949 whole entry): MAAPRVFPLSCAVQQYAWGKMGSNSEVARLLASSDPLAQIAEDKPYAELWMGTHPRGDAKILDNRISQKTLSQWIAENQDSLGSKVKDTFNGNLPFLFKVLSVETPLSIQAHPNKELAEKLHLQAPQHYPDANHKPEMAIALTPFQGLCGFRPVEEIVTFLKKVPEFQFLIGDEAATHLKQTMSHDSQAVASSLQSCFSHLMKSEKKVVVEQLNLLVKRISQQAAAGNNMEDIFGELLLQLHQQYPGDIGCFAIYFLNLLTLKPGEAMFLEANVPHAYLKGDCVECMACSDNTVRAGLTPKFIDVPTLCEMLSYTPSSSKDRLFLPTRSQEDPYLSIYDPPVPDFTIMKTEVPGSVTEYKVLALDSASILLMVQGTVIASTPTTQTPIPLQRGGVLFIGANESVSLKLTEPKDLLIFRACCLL

[16] = M. tuberculosis growth inhibition, HTS (AID 449762); assay type: functional
[17] = target: Diphosphomevalonate decarboxylase (Streptococcus pneumoniae serotype 2 (strain D39 / NCTC 7466), UniProt Q9FD53); assay: S. pneumoniae DPM-DC inhibition retest, confirmation, biochemical, cuvette format, coupled NADH fluorescence (AID 1028); assay type: functional
Chain of Diphosphomevalonate decarboxylase (Q9FD53 whole entry): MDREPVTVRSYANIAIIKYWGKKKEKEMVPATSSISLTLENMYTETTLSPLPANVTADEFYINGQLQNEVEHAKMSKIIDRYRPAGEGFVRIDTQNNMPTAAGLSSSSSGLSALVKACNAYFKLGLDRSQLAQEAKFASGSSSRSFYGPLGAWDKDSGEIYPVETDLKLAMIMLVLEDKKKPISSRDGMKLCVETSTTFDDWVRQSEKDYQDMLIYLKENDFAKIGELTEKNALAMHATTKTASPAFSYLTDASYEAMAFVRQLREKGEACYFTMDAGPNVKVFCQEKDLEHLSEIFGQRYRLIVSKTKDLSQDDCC

[18] = Luminescence Cell-Based Dose Confirmation HTS to Identify Inhibitors of Platelet Dense Granule Release. [Related pubchem assays: 1663 (Primary HTS), 1678 (Summary of Project)]; assay type: functional
[19] = target: Luciferin 4-monooxygenase (Photinus pyralis, UniProt P08659); assay: firefly luciferase enzyme inhibitors, dose response, biochemical, luminescence (AID 1891)
Chain of Luciferin 4-monooxygenase (P08659 whole entry): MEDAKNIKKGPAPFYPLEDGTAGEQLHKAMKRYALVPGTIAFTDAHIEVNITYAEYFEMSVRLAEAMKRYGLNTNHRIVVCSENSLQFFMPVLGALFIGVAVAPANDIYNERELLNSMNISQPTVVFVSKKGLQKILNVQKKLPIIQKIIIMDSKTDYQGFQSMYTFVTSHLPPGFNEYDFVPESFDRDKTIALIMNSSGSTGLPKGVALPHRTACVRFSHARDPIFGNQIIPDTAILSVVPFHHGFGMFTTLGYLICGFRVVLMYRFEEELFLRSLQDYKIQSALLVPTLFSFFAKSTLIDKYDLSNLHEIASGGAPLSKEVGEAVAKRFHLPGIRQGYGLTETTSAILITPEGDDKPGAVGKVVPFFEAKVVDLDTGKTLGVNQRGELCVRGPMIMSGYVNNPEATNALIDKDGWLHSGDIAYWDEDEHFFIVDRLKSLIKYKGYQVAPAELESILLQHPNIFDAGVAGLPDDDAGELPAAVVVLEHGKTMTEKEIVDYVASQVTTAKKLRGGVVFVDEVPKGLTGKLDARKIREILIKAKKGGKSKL

[20] = Fluorescence Cell-Based Dose Response to Identify Inhibitors of Thrombin Receptor-Activating Peptide SFLLRN-Mediated P-Selectin Induction on Platelets. [Related pubchem assays: 1663 (Primary HTS), 1889 (retest at dose ), 1891 (counterscreen), 1678 (Project Summary)]; assay type: functional
[21] = target: T5, Cytochrome P450 1A2 (Homo sapiens, UniProt P05177);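 also: PubChem cytochrome P450 panel assay, CYP1A2 panel member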
T5 sequence (P05177 whole entry): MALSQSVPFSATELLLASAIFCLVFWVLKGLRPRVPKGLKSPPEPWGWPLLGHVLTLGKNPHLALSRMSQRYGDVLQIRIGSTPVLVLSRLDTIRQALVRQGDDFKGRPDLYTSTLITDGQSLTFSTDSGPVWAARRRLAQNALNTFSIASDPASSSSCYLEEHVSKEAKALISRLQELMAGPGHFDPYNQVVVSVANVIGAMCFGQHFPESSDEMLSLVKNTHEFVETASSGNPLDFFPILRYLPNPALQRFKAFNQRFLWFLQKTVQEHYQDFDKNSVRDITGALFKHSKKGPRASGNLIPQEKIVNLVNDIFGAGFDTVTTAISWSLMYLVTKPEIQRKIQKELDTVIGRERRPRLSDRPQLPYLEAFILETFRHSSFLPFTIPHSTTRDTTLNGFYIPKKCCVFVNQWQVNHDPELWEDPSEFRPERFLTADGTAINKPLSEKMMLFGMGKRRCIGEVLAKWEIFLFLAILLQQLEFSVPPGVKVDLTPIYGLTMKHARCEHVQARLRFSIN

[22] = target: T6, Tyrosine-protein phosphatase non-receptor type 7 (Homo sapiens, UniProt P35236); assay: inhibitors of human HePTP phosphatase, […], biochemical, absorbance, leukemia target (AID 521); assay type: functional
T6 sequence (P35236 whole entry): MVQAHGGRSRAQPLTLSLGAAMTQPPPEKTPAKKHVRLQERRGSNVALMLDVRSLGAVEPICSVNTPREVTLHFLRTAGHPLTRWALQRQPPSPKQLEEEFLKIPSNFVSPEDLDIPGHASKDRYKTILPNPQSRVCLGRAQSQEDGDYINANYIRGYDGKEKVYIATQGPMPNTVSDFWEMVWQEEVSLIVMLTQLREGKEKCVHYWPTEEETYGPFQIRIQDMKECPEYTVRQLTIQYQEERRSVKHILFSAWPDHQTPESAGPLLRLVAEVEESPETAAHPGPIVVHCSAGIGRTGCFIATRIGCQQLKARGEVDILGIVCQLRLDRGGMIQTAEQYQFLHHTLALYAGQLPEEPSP

[23] = cytotoxicity in HEK-293T cells, dose response, cytotoxicity control for BCR NF-kB inhibitor project, luminescence, B-cell screen hits (AID 489021); assay type: functional, cell-based;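 also: HEK-293T cells carrying an NF-kB luciferase reporter; cells exposed to compound for about 14 hours before viability readout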
[24] = target: G-protein coupled receptor 35 (Homo sapiens, UniProt Q9HC97); assay: SAR Analysis for the identification of Selective Antagonists of ERK1/2 Activity in GPR35-Overexpressing U2OS Cells. [Related pubchem assays: 2079, 2058 ]; assay type: functional, cell-based
Chain of G-protein coupled receptor 35 (Q9HC97 whole entry): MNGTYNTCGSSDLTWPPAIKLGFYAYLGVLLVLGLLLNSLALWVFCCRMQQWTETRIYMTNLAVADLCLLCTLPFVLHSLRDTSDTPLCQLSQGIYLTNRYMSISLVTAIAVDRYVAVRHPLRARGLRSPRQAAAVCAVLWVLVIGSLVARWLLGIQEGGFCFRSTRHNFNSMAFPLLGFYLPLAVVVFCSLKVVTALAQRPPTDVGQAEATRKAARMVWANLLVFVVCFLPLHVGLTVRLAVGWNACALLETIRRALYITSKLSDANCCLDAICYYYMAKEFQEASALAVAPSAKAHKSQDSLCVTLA

[25] = target: G-protein coupled receptor 55 (Homo sapiens, UniProt Q9Y2T6); assay: GPR55 antagonists, SAR follow-up, counter-screen for GPR35 antagonist project, imaging, image-based (AID 2397); assay type: functional
Chain of G-protein coupled receptor 55 (Q9Y2T6 whole entry): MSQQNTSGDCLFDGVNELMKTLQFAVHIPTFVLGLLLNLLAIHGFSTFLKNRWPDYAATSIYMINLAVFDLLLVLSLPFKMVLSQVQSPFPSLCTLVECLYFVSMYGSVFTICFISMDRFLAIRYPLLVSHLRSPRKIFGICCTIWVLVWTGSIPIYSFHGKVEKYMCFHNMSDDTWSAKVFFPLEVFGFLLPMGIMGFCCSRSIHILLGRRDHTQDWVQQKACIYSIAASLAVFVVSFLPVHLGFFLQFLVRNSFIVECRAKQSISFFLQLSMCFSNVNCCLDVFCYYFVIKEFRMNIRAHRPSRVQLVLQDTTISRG

CCn1c(SCc2nc(-c3ccccc3)no2)nnc1-c1cccs1
IC50 [1]: 15.1 µM (active)
IC50 [2]: > 100 µM (not active)

COC(=O)c1c(-c2ccccc2)csc1NC(=O)c1c(-c2ccccc2)noc1C
IC50 [3]: 0.8 µM (active)
CC50 [4]: 10.1 µM (active)
IC50 [5]: 3.07 µM (active)
CC50 [6]: 6.35 µM (active)
IC50 [7]: 41.3 µM (active)

CC1CCCN(CCCNC(=O)c2cc3c(Cl)nc4ccccc4c3s2)C1 (stereo not given)
IC50 [8]: 0.934 µM (active)
AC50 [9]: 9.98 µM (active)
EC50 [10]: 1.4 µM (active)
EC50 [11]: 6.28 µM (active)
AC50 [12]: 8.01 µM (active)

Cc1cccc(CSc2nc3c(c(-c4cccs4)c2C#N)CN(C)CC3)c1
AC50 [13]: 16.5 µM (active)
EC50 [14]: 0.503 µM (active)
EC50 [10]: 0.101 µM (active)
EC50 [11]: > 60 µM (not active)
IC50 [15]: > 50 µM (not active)
IC50 [16]: > 100 µM (active)

O=C(NCc1ccco1)c1ccc(-n2sc3ccccc3c2=O)cc1
IC50 [17]: 4.68 µM (active)

COC(=O)C(C)Sc1nc2c(c(=O)[nH]c(=O)n2C)n1CCCc1ccccc1 (stereo not given)
IC50 [1]: 12.6 µM (active)
EC50 [18]: 6.52 µM (active)
EC50 [19]: > 112 µM (not active)
EC50 [20]: < 30 µM (active)

Cc1c(NC(=O)CN2C(=O)C3C4C=CC(C4)C3C2=O)c(=O)n(-c2ccccc2)n1C (stereo not given)
AC50 [21]: 39.8 µM (inconclusive)
IC50 [22]: > 100 µM (not active)

COc1ccc(/C=C2\SC(=S)N(CCCC(=O)Nc3ccc(O)cc3)C2=O)cc1
AC50 [13]: > 380 µM (inactive)
IC50 [23]: > 80 µM (inactive)
EC50 [14]: 78.1 µM (active)
IC50 [24]: > 32 µM (not active)
IC50 [25]: > 32 µM (inactive)
